The NIST ThermoML archive (doi:10.1021/je500275j)
Numbers after ± are expanded uncertainties.

Assay: xn = mol fraction of the nth substance listed
Details: 100 kPa, Liquid; for viscosity: Falling or rolling sphere viscometry; for mass density: Vibrating tube method

C1CCC(C2CCCCC2)CC1 [1,1'-bicyclohexyl] + CC1CCCCC1
Details | mass density [kg/m3] | viscosity [mPa·s]
293.15 K, x1 = 0.0999 | 786.65 ± 0.15 | 0.882 ± 0.012
293.15 K, x1 = 0.2015 | 802.4 ± 0.15 | 1.053 ± 0.013
293.15 K, x1 = 0.3012 | 816.38 ± 0.14 | 1.269 ± 0.014
293.15 K, x1 = 0.4007 | 828.96 ± 0.14 | 1.513 ± 0.015
293.15 K, x1 = 0.4994 | 840.4 ± 0.14 | 1.77 ± 0.016
293.15 K, x1 = 0.5986 | 850.98 ± 0.14 | 2.12 ± 0.018
293.15 K, x1 = 0.7002 | 861.06 ± 0.14 | 2.507 ± 0.021
293.15 K, x1 = 0.7998 | 870.05 ± 0.14 | 2.935 ± 0.024
293.15 K, x1 = 0.8998 | 878.51 ± 0.14 | 3.428 ± 0.028
293.15 K, x1 = 1 | 886.39 ± 0.15 | 4.017 ± 0.033
298.15 K, x1 = 0.0999 | 782.49 ± 0.15 | 0.821 ± 0.012
298.15 K, x1 = 0.2015 | 798.27 ± 0.15 | 0.977 ± 0.012
298.15 K, x1 = 0.3012 | 812.39 ± 0.15 | 1.173 ± 0.013
298.15 K, x1 = 0.4007 | 825.06 ± 0.14 | 1.389 ± 0.014
298.15 K, x1 = 0.4994 | 836.55 ± 0.14 | 1.616 ± 0.015
298.15 K, x1 = 0.5986 | 847.21 ± 0.14 | 1.923 ± 0.017
298.15 K, x1 = 0.7002 | 857.36 ± 0.14 | 2.261 ± 0.019
298.15 K, x1 = 0.7998 | 866.41 ± 0.14 | 2.628 ± 0.022
298.15 K, x1 = 0.8998 | 874.87 ± 0.14 | 3.05 ± 0.025
298.15 K, x1 = 1 | 882.79 ± 0.15 | 3.541 ± 0.029
303.15 K, x1 = 0.0999 | 778.28 ± 0.15 | 0.768 ± 0.011
303.15 K, x1 = 0.2015 | 794.17 ± 0.15 | 0.905 ± 0.012
303.15 K, x1 = 0.3012 | 808.39 ± 0.15 | 1.086 ± 0.013
303.15 K, x1 = 0.4007 | 821.14 ± 0.14 | 1.28 ± 0.014
303.15 K, x1 = 0.4994 | 832.74 ± 0.14 | 1.49 ± 0.015
303.15 K, x1 = 0.5986 | 843.46 ± 0.14 | 1.754 ± 0.016
303.15 K, x1 = 0.7002 | 853.63 ± 0.14 | 2.056 ± 0.018
303.15 K, x1 = 0.7998 | 862.73 ± 0.14 | 2.367 ± 0.02
303.15 K, x1 = 0.8998 | 871.23 ± 0.15 | 2.73 ± 0.023
303.15 K, x1 = 1 | 879.19 ± 0.15 | 3.145 ± 0.026
308.15 K, x1 = 0.0999 | 774.06 ± 0.15 | 0.722 ± 0.011
308.15 K, x1 = 0.2015 | 790.07 ± 0.15 | 0.85 ± 0.012
308.15 K, x1 = 0.3012 | 804.38 ± 0.15 | 1.01 ± 0.012
308.15 K, x1 = 0.4007 | 817.21 ± 0.15 | 1.185 ± 0.013
308.15 K, x1 = 0.4994 | 828.85 ± 0.14 | 1.373 ± 0.014
308.15 K, x1 = 0.5986 | 839.63 ± 0.14 | 1.609 ± 0.015
308.15 K, x1 = 0.7002 | 849.8 ± 0.14 | 1.871 ± 0.017
308.15 K, x1 = 0.7998 | 859.05 ± 0.14 | 2.143 ± 0.019
308.15 K, x1 = 0.8998 | 867.6 ± 0.15 | 2.459 ± 0.021
308.15 K, x1 = 1 | 875.6 ± 0.15 | 2.817 ± 0.023
313.15 K, x1 = 0.0999 | 769.83 ± 0.16 | 0.679 ± 0.011
313.15 K, x1 = 0.2015 | 785.95 ± 0.15 | 0.795 ± 0.012
313.15 K, x1 = 0.3012 | 800.36 ± 0.15 | 0.942 ± 0.012
313.15 K, x1 = 0.4007 | 813.28 ± 0.15 | 1.102 ± 0.013
313.15 K, x1 = 0.4994 | 824.98 ± 0.15 | 1.268 ± 0.014
313.15 K, x1 = 0.5986 | 835.85 ± 0.14 | 1.474 ± 0.015
313.15 K, x1 = 0.7002 | 846.15 ± 0.14 | 1.708 ± 0.016
313.15 K, x1 = 0.7998 | 855.37 ± 0.15 | 1.953 ± 0.018
313.15 K, x1 = 0.8998 | 863.97 ± 0.15 | 2.227 ± 0.019
313.15 K, x1 = 1 | 872.01 ± 0.15 | 2.54 ± 0.022
318.15 K, x1 = 0.0999 | 765.59 ± 0.16 | 0.641 ± 0.011
318.15 K, x1 = 0.2015 | 781.82 ± 0.15 | 0.747 ± 0.011
318.15 K, x1 = 0.3012 | 796.34 ± 0.15 | 0.882 ± 0.012
318.15 K, x1 = 0.4007 | 809.35 ± 0.15 | 1.025 ± 0.012
318.15 K, x1 = 0.4994 | 821.14 ± 0.15 | 1.177 ± 0.013
318.15 K, x1 = 0.5986 | 832.06 ± 0.15 | 1.37 ± 0.014
318.15 K, x1 = 0.7002 | 842.45 ± 0.15 | 1.582 ± 0.015
318.15 K, x1 = 0.7998 | 851.7 ± 0.15 | 1.788 ± 0.017
318.15 K, x1 = 0.8998 | 860.35 ± 0.15 | 2.032 ± 0.018
318.15 K, x1 = 1 | 868.43 ± 0.15 | 2.302 ± 0.02
